Measured values: patent US5445941A, “Method for screening anti-osteoporosis agents” (Eli Lilly and Company, priority 1993, dated 1995)
“Also recorded” adds a separate entry of the source. Counter-ions that a name gives are not always drawn. Like-named read-outs stand apart in the source and are kept apart here.

What was measured:
TGFβ-3 promoter [1] = experiment: Dose response of TGFβ-3 promoter (pB-301) CAT induction in MG63 cells with pRSVER; details: for CAT activity: 24 h, vehicle 0.85
Description: For each group of twelve cultures, the particular estrogen or antiestrogen compound was tested in replicate cultures at […], varying in tenfold increments from 10^-9 M to 10^-5 M, as well as one set of replicate cultures treated with vehicle only (for a total of twelve cultures per experimental treatment). Hormones were dissolved in ethanol and applied to the cultures in media as described above. The four estrogens and antiestrogens tested were:
a. 17β-estradiol (Sigma Chemical Corp., St. Louis, Mo.);

uterotropic activity = details: ovariectomized rats; cited from earlier work
TGFβ-3 promoter [2] = experiment: Comparative induction of reporter gene from TGFβ-3 promoter (pB-301, pRSVER, MG63) by raloxifene and related compounds; type: cell-based, human; details: for reporter gene expression: 0 M 0.61; for induction of reporter gene expression (in words): MG63 cells
[3] = system: estrogen responsive elements; details: in vitro; cited from earlier work
TGFβ-2 promoter = experiment: CAT reporter expression, TGFβ-2 promoter (pTGF-1), MG63 cells cotransfected with pRSVER
Description: (§1) Co-transfection experiments were performed in MG63 (human osteosarcoma) cells, using the ProFection Mammalian Transfection System (Promega). […] The cells were then refed with fresh 3:1 media containing 10% csFBS. Compounds to be evaluated for their ability to modulate reporter gene expression were added at the appropriate times and assayed as described below.
(§2) Cultures of MG63 cells were transiently co-transfected with pRSVER plasmid and either phTG12, pTGF-1, or pB2-499 using the ProFection system (Promega). For each transfected cell culture, DNA-containing calcium phosphate precipitates were added dropwise to each culture dish and mixed thoroughly in the media. The pH of the media was carefully maintained between pH 7.2 and pH 7.4. Transfected cell cultures were then incubated overnight in a 5% CO2 atmosphere at 37° C. For all cultures, the precipitate was removed after overnight incubation by aspirating the media from the culture dishes, followed by rinsing each dish twice with D-PBS. For each cotransfected cell line, the buffer was replaced with 10 ml fresh medium containing 10% csFBS and one of the following compositions:
(§3) a. 10 μl ethanol (hormone vehicle)=control;
(§4) b. 10 μl 17β-estradiol (Sigma) ("estradiol") at a concentration of 10^-4 M in ethanol;
(§5) d. 10 μl Tamoxifen (Sigma) at a concentration of 10^-4 M in ethanol.
(§6) After 24 h incubation with these hormonal preparations (or the vehicle control), cells were washed twice with D-PBS. The cells were then scraped from the culture dishes using a rubber policeman and 1 ml of D-PBS. Cells were collected by centrifugation at 8,000 rpm for 2 minutes in a tabletop centrifuge (MicroMax Model, IEC, Newark, N.Y.). The supernatant was removed and the cell pellets were resuspended in 150 μL of a 0.25M Tris-HCl solution (pH 7.8). Cells were lysed by three cycles of freezing in a dry ice/ethanol bath and thawing in a water bath at 37° C. water bath (for 3 minutes each cycle). Lysed cell preparations were centrifuged at 15,000 rpm for 5 minutes at 4° C. to remove cell debris. Supernatants containing the soluble cell lysate were transferred to a new set of tubes for assaying chloramphenicol acetyltransferase (CAT) activity.
(§7) Before performing CAT assays on such cell lysates, the protein content of each lysate was first determined using a commercially-available assay (BioRad Laboratories, Richmond, Calif.). […]

TGFβ-1 = details: three months of treatment; cited from earlier work
[4] = system: TGFβ secretion by human fetal fibroblasts; details: absence of estrogen receptor; cited from earlier work
TGFβ-3 promoter [5] = experiment: CAT reporter expression, TGFβ-3 promoter (pB-499), MG63 cells cotransfected with pRSVER
Description: as §1, §2, §3, §4, §5, §6, §7

TGFβ-1 promoter = experiment: CAT reporter expression, TGFβ-1 promoter (phTG12), MG63 cells cotransfected with pRSVER
Description: as §1, §2, §3, §4, §5, §6
Before performing CAT assays on such cell lysates, the protein content of each lysate was first determined using a commercially-available assay (BioRad Laboratories, Richmond, Calif.). An amount of each cell lysate containing 100 μg total protein was then mixed with CAT assay buffer (0.4M Tris-HCl (pH 7.8)/ 0.5 mM acetyl-CoA (Boehringer Mannheim)/ 0.1 μCi D-threo-(dichloroacetyl-1,2-[^14 C]-chloramphenicol) for 15 hours. After this incubation, reactions were stopped by vigorously extracting the reaction mixture with 900 μL ethyl acetate. The organic and aqueous phases were separated by brief centrifugation at 14,000 rpm for 1 minute, and approximately 800 μL of the organic phase was transferred to a new set of tubes. Ethyl acetate was evaporated to concentrate the CAT-catalyzed reaction products.
Acetylated and unacetylated chloramphenicol species were resolved by thin layer chromatography using a mixture of 95:5 (v/v) chloroform:methanol as the ascending buffer.

TGFβ-2 mRNA = details: T-47D and MDA-MB-231; cited from earlier work
[6] = cited from earlier work; for bone density (in words): breast cancer patients
[7] = system: mesenchymal cells and epithelial cells; fibroblasts, macrophages and smooth muscle cells; details: cited from earlier work
[8] = system: human endometrial cancer cell line (HEC-50); details: cited from earlier work
[9] = system: osteoblasts and osteoclasts; details: cited from earlier work
[10] = system: human endometrial cancer cell line (Ishikawa); details: cited from earlier work
[11] = system: osteoblast enriched bone cell cultures; details: relative to TGFβ-1; cited from earlier work
[12] = Homo sapiens, MG-63, 24 h, read-out: Fold Ind.

CCCCN(C)C(=O)CCCCCCCCCC[C@@H]1Cc2cc(O)ccc2[C@H]2CC[C@]3(C)[C@@H](O)CC[C@H]3[C@H]12 [ICI]
CAT activity (TGFβ-3 promoter [1]; 10^-5 M): 6.5 | CAT activity (TGFβ-3 promoter [1]; 10^-6 M): 15.2 | CAT activity (TGFβ-3 promoter [1]; 10^-7 M): 10.9 | CAT activity (TGFβ-3 promoter [1]; 10^-8 M): 0.88 | CAT activity (TGFβ-3 promoter [1]; 10^-9 M): 0.89 | EC50 (TGFβ-3 promoter [1]; Homo sapiens, MG-63, 24 h, read-out: ED50): 100 nM | TGFβ-3 promoter activation (in words) (TGFβ-3 promoter [1]; MG63 cells): much less active at high concentrations (10^-5 M)

O=C(c1ccc(O)cc1)c1sc2ccccc2c1-c1ccccc1 [LY81099, p-hydroxyphenyl 3-phenylbenzo[B]thien-2-yl ketone]
in vivo uterotropic activity (in words) (uterotropic activity): uterotropic | reporter gene expression (TGFβ-3 promoter [2]; 10^-5 M): 2.3 | reporter gene expression (TGFβ-3 promoter [2]; 10^-6 M): 0.9 | reporter gene expression (TGFβ-3 promoter [2]; 10^-7 M): 0.7 | reporter gene expression (TGFβ-3 promoter [2]; 10^-8 M): 0.5 | reporter gene expression (TGFβ-3 promoter [2]; 10^-9 M): 0.6

O=C(c1ccc(O)cc1)c1sc2ccc(O)cc2c1-c1ccccc1 [LY112676, (p-hydroxyphenyl) 5-hydroxy-3-phenylbenzo[B]thien-2-yl ketone]
in vivo uterotropic activity (in words) (uterotropic activity): uterotropic | reporter gene expression (TGFβ-3 promoter [2]; 10^-5 M): 3.8 | reporter gene expression (TGFβ-3 promoter [2]; 10^-6 M): 1.7 | reporter gene expression (TGFβ-3 promoter [2]; 10^-7 M): 0.5 | reporter gene expression (TGFβ-3 promoter [2]; 10^-8 M): 0.6 | reporter gene expression (TGFβ-3 promoter [2]; 10^-9 M): 0.6

O=C(c1ccc(OCCN2CCCC2)cc1)c1c(-c2ccc(O)cc2)sc2ccccc12 [LY113526, 2-(p-hydroxyphenyl)benzo[B]thien-3-YL p-[2-(1-pyrrolidinyl)ethoxy]phenyl ketone]
in vivo uterotropic activity (in words) (uterotropic activity): anti-uterotropic | reporter gene expression (TGFβ-3 promoter [2]; 10^-5 M): 2.1 | reporter gene expression (TGFβ-3 promoter [2]; 10^-6 M): 2.0 | reporter gene expression (TGFβ-3 promoter [2]; 10^-7 M): 0.6 | reporter gene expression (TGFβ-3 promoter [2]; 10^-8 M): 0.7 | reporter gene expression (TGFβ-3 promoter [2]; 10^-9 M): 0.7

COc1ccc(C2=C(C(=O)c3ccc(OCCN4CCCC4)cc3)c3ccccc3CC2)cc1 [LY133314, [3,4-dihydro-2-(4-methoxyphenyl)-1-naphthanlenyl][4-[2-(1-pyrrolidinyl)ethoxy]phenyl]methanone, methanesulfonic acid salt]
in vivo uterotropic activity (in words) (uterotropic activity): uterotropic | reporter gene expression (TGFβ-3 promoter [2]; 10^-5 M): 1.0 | reporter gene expression (TGFβ-3 promoter [2]; 10^-6 M): 6.6 | reporter gene expression (TGFβ-3 promoter [2]; 10^-7 M): 3.1 | reporter gene expression (TGFβ-3 promoter [2]; 10^-8 M): 0.7 | reporter gene expression (TGFβ-3 promoter [2]; 10^-9 M): 0.7

O=C(c1ccc(OCCN2CCCCCC2)cc1)c1c(-c2ccc(O)cc2)sc2cc(O)ccc12 [LY139482, [4-[2-(hexahydro-1H-azepin-1-yl)ethoxy]phenyl][6-hydroxy-2-(4-hydroxyphenyl)benzo[B]thien-3-yl]methanone]
in vivo uterotropic activity (in words) (uterotropic activity): anti-uterotropic | reporter gene expression (TGFβ-3 promoter [2]; 10^-5 M): 2.0 | reporter gene expression (TGFβ-3 promoter [2]; 10^-6 M): 2.5 | reporter gene expression (TGFβ-3 promoter [2]; 10^-7 M): 2.7 | reporter gene expression (TGFβ-3 promoter [2]; 10^-8 M): 2.5 | reporter gene expression (TGFβ-3 promoter [2]; 10^-9 M): 0.8

CC(C)(C)C(=O)Oc1ccc(-c2sc3cc(OC(=O)C(C)(C)C)ccc3c2C(=O)c2ccc(OCCN3CCCCC3)cc2)cc1 [LY177366, [6-(2,2-dimethyl-1-oxopropoxy)-2-[4-(2,2-dimethyl-1-oxopropoxy)phenyl]benzo[B]thien-3-yl][4-[2-1-piperidinyl)ethoxy]phenyl]methanone hydrochloride]
in vivo uterotropic activity (in words) (uterotropic activity): anti-uterotropic | reporter gene expression (TGFβ-3 promoter [2]; 10^-5 M): 6.1 | reporter gene expression (TGFβ-3 promoter [2]; 10^-6 M): 7.9 | reporter gene expression (TGFβ-3 promoter [2]; 10^-7 M): 10.2 | reporter gene expression (TGFβ-3 promoter [2]; 10^-8 M): 7.9 | reporter gene expression (TGFβ-3 promoter [2]; 10^-9 M): 1.1 | induction of reporter gene expression (in words) (TGFβ-3 promoter [2]): most potent inducer

CC/C(=C(\c1ccc(O)cc1)c1ccc(OCCN(C)C)cc1)c1ccccc1 [hydroxytamixofen]
binding of estrogen receptor complex to estrogen responsive elements (in words) [3]: bind in vitro to DNA binding domains called estrogen responsive elements

O=C(c1ccc(OCCN2CCCCC2)cc1)c1c(-c2ccc(O)cc2)sc2cc(O)ccc12 [raloxifene]
ED50 (in words) (TGFβ-3 promoter [1]; MG63 cells): nanomolar concentrations

CC/C(=C(\c1ccccc1)c1ccc(OCCN(C)C)cc1)c1ccccc1 [tamoxifen]
CAT activity (TGFβ-3 promoter [1]; 10^-5 M): 13.5 | CAT activity (TGFβ-3 promoter [1]; 10^-6 M): 2.9 | CAT activity (TGFβ-3 promoter [1]; 10^-7 M): 0.98 | CAT activity (TGFβ-3 promoter [1]; 10^-8 M): 1.2 | CAT activity (TGFβ-3 promoter [1]; 10^-9 M): 0.91 | TGFβ-3 promoter activation (in words) (TGFβ-3 promoter [1]; MG63 cells): activates the TGFβ-3 promoter only at high levels (i.e., greater than micromolar) | fold induction at 0.1 µM (TGFβ-2 promoter; [12]): 2.6 | Act. (relative CAT activity) (TGFβ-2 promoter; TGFβ-2 promoter, 10 μl of 10^-4 M in 10 ml medium, 24 h, control 0.8): 2.0 | induction of extracellular TGFβ-1 (in words) (TGFβ-1): correlated with induction of extracellular TGFβ-1 | TGFβ secretion (in words) [4]: induce human fetal fibroblasts to secrete TGFβ | fold induction at 0.1 µM (TGFβ-3 promoter [5]; [12]): 2.6 | Act. (relative CAT activity) (TGFβ-3 promoter [5]; TGFβ-3 promoter, 10 μl of 10^-4 M in 10 ml medium, 24 h, control 0.7): 1.9 | fold induction at 0.1 µM (TGFβ-1 promoter; [12]): 1.1 | Act. (relative CAT activity) (TGFβ-1 promoter; TGFβ-1 promoter, 10 μl of 10^-4 M in 10 ml medium, 24 h, control […]): 6.9 | TGFβ-2 mRNA expression (in words) (TGFβ-2 mRNA): did not exhibit the same effect | bone density (in words) [6]: appear to be restricted to the lumbar spine, with bone loss being reported in the radius in some breast cancer patients | bone density (in words) ([6]; listed as Tamoxifen): increase bone density in breast cancer patients | serum cholesterol (in words) ([6]; healthy women and women with breast cancer): reduce the growth the serum cholesterol | growth of breast tumors (in words) ([6]; human, in vivo): reduce the growth of breast tumors | serum concentration of LDLs (in words) ([6]; human, in vivo): reduce serum concentration of LDLs | weight gain (in words) ([6]; post-menopausal women): contribute to weight gain

CN(C)CCOc1ccc(/C(=C(/CCCl)c2ccccc2)c2ccccc2)cc1 [toremifene]
TGFβ secretion (in words) [4]: induce human fetal fibroblasts to secrete TGFβ

TGFβ
cell growth, biosynthesis and chemotaxis (in words) [7]: inhibits the growth of mesenchymal cells and epithelial cells; also recorded: induces biosynthesis of proteoglycans, fibronectins and plasminogen activator; also recorded: chemotactic for fibroblasts, macrophages and smooth muscle cells | mitogenic effect (in words) [8]: mitogenic | bone formation / osteoclast effects (in words) [9]: stimulate osteoblastic bone formation and to inhibit osteoclast formation and osteoclast activities | cell division (in words) [10]: repressed division

TGFβ-3: isoform of transforming growth factor β
mitogenesis, collagen synthesis and alkaline phosphatase activity (in words) [11]: three to five fold higher rate than TGFβ-1

p-hydroxyphenyl3-(-hydroxyphenyl)benzo[B]thien-2-yl ketone [LY98005]
in vivo uterotropic activity (in words) (uterotropic activity): inert in vivo | reporter gene expression (TGFβ-3 promoter [2]; 10^-5 M): 0.5 | reporter gene expression (TGFβ-3 promoter [2]; 10^-6 M): 0.4 | reporter gene expression (TGFβ-3 promoter [2]; 10^-7 M): 0.5 | reporter gene expression (TGFβ-3 promoter [2]; 10^-8 M): 0.5 | reporter gene expression (TGFβ-3 promoter [2]; 10^-9 M): 0.4 | induction of reporter gene expression (in words) (TGFβ-3 promoter [2]): no induction
